According to patent US12240844B2 (Voronoi, Inc., priority 2019, dated 2025):

Legend:
Type in all cases: biochemical
[1] = target: T1, human GST-DYRK1A (full length) (Homo sapiens, UniProt Q13627); test: GST-DYRK1A enzyme inhibition, ADP-Glo kinase assay; conditions: read-out: DYRK1 IC50
T1 construct: purified human GST-DYRK1A (full length, Thermo scientifics) enzyme; GST; purchased Thermo scientifics
Procedure, shortened: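 ADP-Glo luminescence quantified kinase activity after a 1 h, 25° C reaction of 10 ng full-length GST-tagged human DYRK1A, substrate and 10 uM ATP in Tris-HCl buffer pH 7.4 with MgCl2, BSA and DTT. Triplicate IC50 values (nM) calculated relative to untreated solvent control.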

LRRK2 = LRRK2 (Homo sapiens, UniProt Q5S007); test: LRRK2 enzyme inhibition, ADP-Glo kinase assay; parameters: purchased Invitrogen PR8604B
Chain of LRRK2 (Q5S007 970-2527 limits assumed): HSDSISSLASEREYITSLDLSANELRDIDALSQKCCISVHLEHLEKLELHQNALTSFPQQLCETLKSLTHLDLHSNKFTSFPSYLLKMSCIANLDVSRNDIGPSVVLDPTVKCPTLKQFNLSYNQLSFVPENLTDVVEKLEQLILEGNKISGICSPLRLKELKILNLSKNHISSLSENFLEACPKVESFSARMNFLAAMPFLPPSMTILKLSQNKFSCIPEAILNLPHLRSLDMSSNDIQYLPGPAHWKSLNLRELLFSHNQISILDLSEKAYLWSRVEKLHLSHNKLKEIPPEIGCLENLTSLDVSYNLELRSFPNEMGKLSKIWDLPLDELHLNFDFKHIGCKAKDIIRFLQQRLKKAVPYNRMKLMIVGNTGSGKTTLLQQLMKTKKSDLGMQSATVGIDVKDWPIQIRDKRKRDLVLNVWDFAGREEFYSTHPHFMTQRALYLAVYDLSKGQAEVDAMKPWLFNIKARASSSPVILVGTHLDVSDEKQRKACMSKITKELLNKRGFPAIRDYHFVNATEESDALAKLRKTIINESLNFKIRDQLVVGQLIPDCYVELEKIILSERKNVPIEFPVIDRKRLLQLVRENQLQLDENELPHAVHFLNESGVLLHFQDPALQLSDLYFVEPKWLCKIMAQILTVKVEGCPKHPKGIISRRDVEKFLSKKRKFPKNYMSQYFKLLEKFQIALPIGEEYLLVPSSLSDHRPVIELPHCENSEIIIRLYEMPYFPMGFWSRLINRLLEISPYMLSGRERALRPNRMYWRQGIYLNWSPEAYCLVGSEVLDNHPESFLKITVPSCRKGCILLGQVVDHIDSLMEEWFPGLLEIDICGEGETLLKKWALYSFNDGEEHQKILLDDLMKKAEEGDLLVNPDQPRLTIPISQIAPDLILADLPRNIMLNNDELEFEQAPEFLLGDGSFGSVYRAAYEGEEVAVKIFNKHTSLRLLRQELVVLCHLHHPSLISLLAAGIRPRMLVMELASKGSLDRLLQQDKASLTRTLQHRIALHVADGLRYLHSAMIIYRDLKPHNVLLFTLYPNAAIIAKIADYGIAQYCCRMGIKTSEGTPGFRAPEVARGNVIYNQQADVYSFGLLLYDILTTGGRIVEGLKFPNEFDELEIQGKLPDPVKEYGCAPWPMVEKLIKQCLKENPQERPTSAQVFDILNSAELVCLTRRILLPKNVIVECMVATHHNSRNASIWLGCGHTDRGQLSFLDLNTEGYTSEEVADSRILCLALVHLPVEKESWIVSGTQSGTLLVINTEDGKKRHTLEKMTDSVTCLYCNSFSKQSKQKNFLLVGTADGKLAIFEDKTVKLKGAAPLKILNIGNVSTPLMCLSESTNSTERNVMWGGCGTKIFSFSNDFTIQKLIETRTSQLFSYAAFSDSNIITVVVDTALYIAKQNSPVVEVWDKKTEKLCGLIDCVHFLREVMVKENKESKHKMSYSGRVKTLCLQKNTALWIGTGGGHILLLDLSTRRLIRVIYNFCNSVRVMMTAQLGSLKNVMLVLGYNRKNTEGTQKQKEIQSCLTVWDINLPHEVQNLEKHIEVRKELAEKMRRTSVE
Method: In order to evaluate the inhibitory activity of the compounds according to the present invention on LRRK2, LRRK2 (G2019S), DYRK1, CLK1 and TTK kinases, the following experiment was performed.
Example compounds were reacted with the purified human LRRK2 (Invitrogen #PR8604B) enzyme to evaluate the enzyme inhibitory ability as follows. The reaction buffer was used as the composition of 40 mM Tris-HCl pH7.4, 20 mM MgCl2, 0.5 mg/ml BSA and 50 μM DTT, and the reaction of all test materials was performed on the reaction buffer. The compound was diluted with 10 mM DMSO stock in 12 steps by a serial dilution method, and the enzyme activity was measured at the final compound concentrations of 50, 10, 2, 0.4, 0.08, 0.016, 0.0032, 0.00064, 0.000128, 0.0000256, 0.00000512 and 0.000001024 μM. In the test, the human LRRK2 (25 ng) enzyme was reacted with the purified ATP (10 μM) and an enzyme substrate ([…]) at 25° C. for 2 hours, and then the enzyme activity was identified using the in vitro ADP-Glo™ kinase assay (promega). The enzyme activity reaction liquid, an ADP-Glo reaction liquid and an enzyme potency detection solution were reacted in a ratio of 2:2:1, and the degree of inhibition of enzyme activity was measured by Luminescence. The degree of inhibition of enzyme activity according to the treatment concentrations of the respective compounds was calculated based on the fluorescence of the enzyme activity of a solvent control group that was not treated with the compound, where the concentration of each compound to inhibit enzyme activity inhibition by 50% was determined as an IC50 (nM) value and obtained using Prism (Version 5.01, GraphPad) software.
In the table below, the following designations were used for the evaluation of enzyme inhibitory ability.

human GST-CLK1 (129-end) = target: T2, human GST-CLK1 (129-end) (Homo sapiens, UniProt P49759); test: GST-CLK1 enzyme inhibition, ADP-Glo kinase assay; conditions: ATP 10 uM
T2 construct: purified human GST-CLK1 (129-end, Signalchem) enzyme; GST; purchased Signalchem
T2 sequence (P49759 129-484 limits assumed): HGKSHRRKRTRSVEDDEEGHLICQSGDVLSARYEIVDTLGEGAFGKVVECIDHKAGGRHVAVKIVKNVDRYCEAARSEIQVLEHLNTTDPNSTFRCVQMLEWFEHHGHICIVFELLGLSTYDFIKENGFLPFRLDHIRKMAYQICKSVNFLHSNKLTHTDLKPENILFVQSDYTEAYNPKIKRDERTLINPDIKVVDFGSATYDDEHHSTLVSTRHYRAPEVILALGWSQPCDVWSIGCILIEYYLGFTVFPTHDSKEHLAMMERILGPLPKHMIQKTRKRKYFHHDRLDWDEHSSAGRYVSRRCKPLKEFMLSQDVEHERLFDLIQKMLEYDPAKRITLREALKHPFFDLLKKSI
Procedure, shortened: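 ADP formation was read by ADP-Glo luminescence after 1 h at 25° C with 3 ng human GST-CLK1 (129-end), substrate and 10 uM ATP in Tris pH 7.4 buffer containing MgCl2, BSA and DTT. Inhibition relative to untreated solvent control gave IC50 (nM), run in triplicate.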

LRRK2 (G2019S) = LRRK2 (G2019S) (Homo sapiens, UniProt Q5S007, G2019S); test: LRRK2 G2019S enzyme inhibition, ADP-Glo kinase assay; parameters: purchased SignalChem L10-12GG
Chain of LRRK2 (G2019S) (Q5S007 970-2527 G2019S limits assumed): as the sequence (Q5S007 970-2527 limits assumed) above, with G1050S counted along it
Procedure, shortened: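 Activity read as ADP-Glo luminescence, normalized to untreated solvent control, with IC50 (nM) fitted over 12 final compound levels (top 50 μM). Reaction: 2 h, 25° C, human LRRK2 G2019S 16 ng, ATP 25 μM, substrate 0.2 μg, in Tris-HCl pH 7.4 with MgCl2, BSA and DTT.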

| Structure (SMILES) | IC50 [1] | IC50 (LRRK2) | IC50 (human GST-CLK1 (129-end)) | IC50 (LRRK2 (G2019S)) |
| --- | --- | --- | --- | --- |
| COCCNc1cc(Nc2ccc(P3(=O)CCN(C4COC4)CC3)cc2OC)nc2[nH]cc(C#N)c12 [Example 144, 6-((2-methoxy-4-(1-(oxetan-3-yl)-4-oxido-1,4-azaphosphinan-4-yl)phenyl)amino)-4-((2-methoxyethyl)amino)-1H-pyrrolo[2,3-b]pyridine-3-carbonitrile] | 301 to 1000 nM | < 100 nM | 101 to 300 nM | – |
| COc1cc(S(C)(=O)=O)ccc1Nc1cc(NC2CCC2)c2c(C(F)(F)F)c[nH]c2n1 [Example 204, N^4-cyclobutyl-N^6-(2-methoxy-4-(methylsulfonyl)phenyl)-3-(trifluoromethyl)-1H-pyrrolo[2,3-b]pyridine-4,6-diamine] | 301 to 1000 nM | 301 to 1000 nM | 301 to 1000 nM | – |
| CN(C)CCNc1cc(Nc2ccc(C(=O)N3CCOCC3)c3c2OCCO3)nc2[nH]cc(C(F)(F)F)c12 [Example 171, (8-((4-((2-(dimethylamino)ethyl)amino)-3-(trifluoromethyl)-1H-pyrrolo[2,3-b]pyridin-6-yl)amino)-2,3-dihydrobenzo [b] [1,4]dioxin-5-yl)(morpholino) methanone] | 301 to 1000 nM | < 100 nM | 301 to 1000 nM | – |
| CN(C)c1cc(Nc2ccc(C(=O)N3CCC(N4CCOCC4)CC3)c3c2OCCO3)nc2[nH]cc(C(F)(F)F)c12 [Example 50, (8-((4-(dimethylamino)-3-(trifluoromethyl)-1H-pyrrolo[2,3-b]pyridin-6-yl)amino)-2,3-dihydrobenzo[b] [1,4]dioxin-5-yl)(4-morpholinopiperidin-1-yl)methanone] | 301 to 1000 nM | < 100 nM | < 100 nM | – |
| CNc1cc(Nc2ccc(S(C)(=N)=O)cc2OC)nc2[nH]cc(C(F)(F)F)c12 (stereo not drawn) [Example 103, N^6-(2-methoxy-4-(s-methylsulfonylimidoyl)phenyl)-N^4-methyl-3-(trifluoromethyl)-1H-pyrrolo[2,3-b]pyridine-4,6-diamine] | 301 to 1000 nM | 101 to 300 nM | 301 to 1000 nM | – |
| COc1cc(P2(=O)CCN(C3CC3)CC2)ccc1Nc1cc(C2CC2)c2c(C(F)(F)F)c[nH]c2n1 [Example 218, 1-cyclopropyl-4-(4-((4-cyclopropyl-3-(trifluoromethyl)-1H-pyrrolo[2,3-b]pyridin-6-yl)amino)-3-methoxyphenyl)-1,4-azaphosphinane 4-oxide] | 301 to 1000 nM | < 100 nM | 301 to 1000 nM | – |
| CCNc1cc(Nc2ccc(P3(=O)CCN(C4COC4)CC3)cc2OC)nc2[nH]cc(C#N)c12 [Example 143, 4-(ethylamino)-6-((2-methoxy-4-(1-(oxetan-3-yl)-4-oxido-1,4-azaphosphinan-4-yl)phenyl)amino)-1H-pyrrolo[2,3-b]pyridine-3-carbonitrile] | 301 to 1000 nM | < 100 nM | 101 to 300 nM | – |
| CN(C)CCNc1cc(Nc2ccc(C(=O)N3CCC(N4CCOCC4)CC3)c3c2OCCO3)nc2[nH]cc(C(F)(F)F)c12 [Example 172, (8-((4-((2-(dimethylamino)ethyl)amino)-3-(trifluoromethyl)-1H-pyrrolo[2,3-b]pyridin-6-yl)amino)-2,3-dihydrobenzo[b] [1,4]dioxin-5-yl)(4-morpholinopiperidin-1-yl)methanone] | 301 to 1000 nM | < 100 nM | 101 to 300 nM | – |
| CCCNc1cc(Nc2ccc(C(=O)N3CCOCC3)c3c2OCCO3)nc2[nH]cc(C(F)(F)F)c12 [Example 174, morpholino(8-((4-(propylamino)-3-(trifluoromethyl)-1H-pyrrolo[2,3-b]pyridin-6-yl)amino)-2,3-dihydrobenzo[b] [1,4]dioxin-5-yl)methanone] | 301 to 1000 nM | 101 to 300 nM | 301 to 1000 nM | – |
| COc1cc(P2(=O)CCN(C3CC3)CC2)ccc1Nc1cc(NC2CCC2)c2c(C(F)(F)F)c[nH]c2n1 [Example 46, 4-(4-((4-(cyclobutylamino)-3-(trifluoromethyl)-1H-pyrrolo[2,3-b]pyridin-6-yl)amino)-3-methoxyphenyl)-1-cyclopropyl-1,4-azaphosphinane 4-oxide] | 301 to 1000 nM | 301 to 1000 nM | 301 to 1000 nM | – |
| CCN(C)c1cc(Nc2ccc(C(=O)N3CCC(N4CCOCC4)CC3)c3c2OCCO3)nc2[nH]cc(C(F)(F)F)c12 [Example 51, (8-((4-(ethyl(methyl)amino)-3-(trifluoromethyl)-1H-pyrrolo[2,3-b]pyridin-6-yl)amino)-2,3-dihydrobenzo [b] [1,4]dioxin-5-yl)(4-morpholinopiperidin-1-yl)methanone] | 301 to 1000 nM | 101 to 300 nM | 101 to 300 nM | – |
| CCCNc1cc(Nc2ccc(P3(=O)CCN(C4CC4)CC3)cc2OC)nc2[nH]cc(C(F)(F)F)c12 [Example 45, 1-cyclopropyl-4-(3-methoxy-4-((4-(propylamino)-3-(trifluoromethyl)-1H-pyrrolo[2,3-b]pyridin-6-yl)amino)phenyl)-1,4-azaphosphinane 4-oxide] | 101 to 300 nM | 101 to 300 nM | 301 to 1000 nM | – |
| CCNc1cc(Nc2ccc(S(C)(=O)=O)cc2OC)nc2[nH]cc(Cl)c12 [Example 81, 3-chloro-N^4-ethyl-N^6-(2-methoxy-4-(methylsulfonyl)phenyl)-1H-pyrrolo[2,3-b]pyridine-4,6-diamine] | 301 to 1000 nM | – | 301 to 1000 nM | 301 to 1000 nM |

Second part, the molecule after the results:

| IC50 [1] | IC50 (LRRK2) | IC50 (human GST-CLK1 (129-end)) | IC50 (LRRK2 (G2019S)) | Structure (SMILES) |
| --- | --- | --- | --- | --- |
| 101 to 300 nM | < 100 nM | 301 to 1000 nM | – | CNc1cc(Nc2ccc(P3(=O)CCN(C4COC4)CC3)cc2OC)nc2[nH]cc(C#N)c12 [Example 142, 6-((2-methoxy-4-(1-(oxetan-3-yl)-4-oxido-1,4-azaphosphinan-4-yl)phenyl)amino)-4-(methylamino)-1H-pyrrolo[2,3-b]pyridine-3-carbonitrile] |
| 101 to 300 nM | < 100 nM | < 100 nM | – | COC[C@@H](C)Nc1cc(Nc2ccc(C(=O)N3CCOCC3)c3c2OCCO3)nc2[nH]cc(C(F)(F)F)c12 [Example 159, (R)-(8-((4-((1-methoxypropan-2-yl)amino)-3-(trifluoromethyl)-1H-pyrrolo[2,3-b]pyridin-6-yl)amino)-2,3-dihydrobenzo [b] [1,4]dioxin-5-yl)(morpholino) methanone] |
| < 100 nM | < 100 nM | < 100 nM | – | CCNc1cc(Nc2ccc(P3(=O)CCN(CC)CC3)cc2OC)nc2[nH]cc(C(F)(F)F)c12 [Example 210, 1-ethyl-4-(4-((4-(ethylamino)-3-(trifluoromethyl)-1H-pyrrolo[2,3-b]pyridin-6-yl)amino)-3-methoxyphenyl)-1,4-azaphosphinane 4-oxide] |
| < 100 nM | < 100 nM | < 100 nM | – | CNc1cc(Nc2ccc(C(=O)N3C[C@@H]4C[C@H]3CO4)c3c2OCCO3)nc2[nH]cc(C(F)(F)F)c12 [Example 43, ((1S,4S)-2-oxa-5-azabicyclo[2.2.1]heptan-5-yl)(8-((4-(methylamino)-3-(trifluoromethyl)-1H-pyrrolo[2,3-b]pyridin-6-yl)amino)-2,3-dihydrobenzo[b] [1,4]dioxin-5-yl)methanone] |
| 101 to 300 nM | < 100 nM | 301 to 1000 nM | – | CCNc1cc(Nc2ccc(P3(=O)CCN(C(C)=O)CC3)cc2OC)nc2[nH]cc(C#N)c12 [Example 145, 6-((4-(1-acetyl-4-oxido-1,4-azaphosphinan-4-yl)-2-methoxyphenyl)amino)-4-(ethylamino)-1H-pyrrolo[2,3-b]pyridine-3-carbonitrile] |
| < 100 nM | < 100 nM | 301 to 1000 nM | – | CCNc1cc(Nc2ccc(P3(=O)CCN(C4CC4)CC3)cc2OC)nc2[nH]cc(C#N)c12 [Example 147, 6-((4-(1-cyclopropyl-4-oxido-1,4-azaphosphinan-4-yl)-2-methoxyphenyl)amino)-4-(ethylamino)-1H-pyrrolo[2,3-b]pyridine-3-carbonitrile] |
